Experimental data as given in ChEMBL document CHEMBL1131428, “Immunophilins: beyond immunosuppression” (J Med Chem, 1998).
Each block holds one molecule with its values, some of them ahead of it.

Assays:
[1] = target: Peptidyl-prolyl cis-trans isomerase FKBP1A (Homo sapiens, UniProt P62942); assay: Compound was tested for its ability to inhibit FK506 binding protein 12 rotamase activity
[2] = tested on: Mus musculus; assay: Compound was evaluated for the recovery of Striatal TH immunostaining in MPTP-treated mice by concurrent treatment after 4 mg/kg sc administration.; format: functional, organism-based; set-up: dose 4 mg/kg; settings: at 4 mg/kg
[3] = species on record: Gallus gallus; assay: In Vitro neurotrophic effect was measured in cultured chick DRG sensory neurons.; format: functional; settings: read-out: ED50 (the source's name)
[4] = tested on: Mus musculus; assay: Compound was evaluated for the recovery of Striatal TH immunostaining in MPTP-treated mice by concurrent treatment after 40 mg/kg sc administration.; format: functional, organism-based; set-up: dose 40 mg/kg; settings: at 40 mg/kg

Chain of Peptidyl-prolyl cis-trans isomerase FKBP1A (P62942 whole entry): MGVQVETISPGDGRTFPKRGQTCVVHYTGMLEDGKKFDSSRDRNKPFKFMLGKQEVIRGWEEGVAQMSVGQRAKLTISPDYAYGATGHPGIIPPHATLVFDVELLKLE

SMILES: CCC(C)(C)C(=O)C(=O)N1CCCC1C(=O)OCCCc1ccccc1 (stereo not given)
- Ki [1]: 42 nM

SMILES: O=C(OCCCc1cccnc1)C1CCCN1S(=O)(=O)Cc1ccccc1 (stereo not given)
- Recovery [2]: 44.3%
- Ki [1]: 72 nM

SMILES: CC(C)(C)C(=O)C(=O)N1CCCCC1C(=O)OCCCc1ccccc1 (stereo not given)
- Recovery [4]: 32.4%

SMILES: O=C(C(=O)N1CCCCC1C(=O)OCCCC1CCCCC1)C1CCCCC1 (stereo not given)
- Ki [1]: 760 nM
- EC50 [3]: 1 nM

SMILES: CCC(C)(C)C(=O)C(=O)N1CCCCC1C(=O)OCCCCc1ccc(OC)cc1 (stereo not given)
- Ki [1]: 60 nM

SMILES: COc1ccc(CCCCOC(=O)C2CCCCN2C(=O)C(=O)C2CCCCC2)cc1 (stereo not given)
- Ki [1]: 103 nM
- EC50 [3]: 6 nM

SMILES: CC(C)(C)C(=O)C(=O)N1CCCCC1C(=O)OC1C2CC3CC(C2)CC1C3 (stereo not given)
- Ki [1]: 78 nM
- EC50 [3]: 0.11 nM

SMILES: CC(C)(C)C(=O)C(=O)N1CCCCC1C(=O)OC(CCCc1ccccc1)CCCc1ccccc1 (stereo not given)
- Recovery [4]: 43.8%

SMILES: CCC(C)(C)C(=O)C(=O)N1CCCCC1C(=O)OCCCc1ccccc1 (stereo not given)
- Ki [1]: 250 nM

SMILES: COC(=O)C(=O)N1CCCCC1C(=O)OCCCC1CCCC1 (stereo not given)
- EC50 [3]: > 10000 nM

SMILES: O=C(C(=O)N1CCCCC1C(=O)OCCCc1ccccc1)C1CCCCC1 (stereo not given)
- Ki [1]: 210 nM
- EC50 [3]: 0.82 nM

SMILES: CCC(C)(C)C(=O)C(=O)N1CCCCC1C(=O)OC(CCc1ccccc1)CCc1ccccc1 (stereo not given)
- Recovery [4]: 71.6%

SMILES: COC(=O)C1CCCCN1C(=O)C(=O)c1ccccc1 (stereo not given)
- Ki [1]: > 10000 nM
- EC50 [3]: > 10000 nM

SMILES: CCC(C)(C)C(=O)C(=O)N1CCCC1C(=O)OCCCc1ccc2c(c1)OCO2 (stereo not given)
- Ki [1]: 170 nM
- EC50 [3]: 10 nM

SMILES: CCC(C)(C)C(=O)C(=O)N1CCCC1C(=O)OCCCc1cc(OC)ccc1OC (stereo not given)
- Ki [1]: 250 nM
- EC50 [3]: 2 nM

SMILES: CCOC(=O)C1CCCCN1C(=O)C(=O)OC (stereo not given)
- Ki [1]: > 10000 nM

SMILES: O=C(OCCCCc1ccccc1)C1CCCCN1S(=O)(=O)c1ccccc1 (stereo not given)
- Recovery [2]: 29.2%

SMILES: CCOC(=O)C1CCCCN1C(=O)C(=O)C(C)(C)CC (stereo not given)
- Ki [1]: 1300 nM

SMILES: Cc1ccc(S(=O)(=O)N2CCCCC2C(=O)OCCCCc2ccccc2)cc1 (stereo not given)
- Recovery [2]: 44.2%

SMILES: CCC(C)(C)C(=O)C(=O)N1CCCC1C(=O)OC/C=C/c1cc(OC)ccc1OC (stereo not given)
- Ki [1]: 450 nM
- EC50 [3]: 0.8 nM

More lines, now with the values ahead:

- EC50 [3]: 0.06 nM
SMILES: COc1cc(C(=O)C(=O)N2CCCCC2C(=O)OCCCc2c[nH]c3ccccc23)cc(OC)c1OC (stereo not given)

- Ki [1]: 725 nM
- EC50 [3]: 0.8 nM
SMILES: O=C(C(=O)N1CCCCC1C(=O)OCCCc1cccnc1)c1ccccc1 (stereo not given)

- Ki [1]: 120 nM
SMILES: CCC(C)(C)C(=O)C(=O)N1CCCC1C(=O)OCCc1cc(OC)c(OC)c(OC)c1 (stereo not given)

- EC50 [3]: 0.05 nM
SMILES: COc1cc(C(=O)C(=O)N2CCCCC2C(=O)OC(CCCc2ccccc2)CCCc2ccccn2)cc(OC)c1OC (stereo not given)

- Ki [1]: 8.3 nM
SMILES: CCC(C)(C)C(=O)C(=O)N1CCCCC1C(=O)OCCC(c1ccccc1)c1ccccc1 (stereo not given)

- EC50 [3]: 0.95 nM
SMILES: COc1cc(C(=O)C(=O)N2CCCCC2C(=O)OC(CCCc2ccccc2)CCc2cccnc2)cc(OC)c1OC (stereo not given)

- Ki [1]: 15 nM
- EC50 [3]: 0.17 nM
SMILES: CCC(OC(=O)C1CCCCN1C(=O)C(=O)C(C)(C)CC)C(CCc1ccccc1)c1ccc(OC)cc1 (stereo not given)

- EC50 [3]: 0.3 nM
SMILES: CCC(C)(C)C(=O)C(=O)N1CCCCC1C(=O)O[C@H](CCc1ccccc1)c1ccccc1 (stereo not given in full)

- Ki [1]: 95 nM
SMILES: CC(C)(C)C(=O)C(=O)N1CCCC1C(=O)OCCCc1ccccc1 (stereo not given)
